# Measured values from patent publication US8673914B2, “Use of phosphodiesterase inhibitors for treating multidrug resistance” (St. John's University, priority 2011, dated 2014).
# Like-named read-outs stand apart in the source and are kept apart here. Marks after values point to notes of the source that are not given here.
# Assays:
# [1] = system: S1/FLV5000; assay: cells; type: cell-based; details: S1/FLV5000, alone
# Method: (§1) The ABCB1-overexpressing drug resistant cell line KB-V1 (generously provided by Dr. Gottesman, NCI, NIH) was established by a stepwise concentration increase of vinblastine in the culture medium of KB-3-1 cells and subsequently culturing these cells in medium with 1 μg/mL of vinblastine. An ABCC1-overexpressing MDR cell line, KB-CV60, was also derived from KB-3-1 cells and was maintained in medium with 1 μg/mL of cepharanthine and 60 ng/mL of vincristine. Both KB-C2 and KB-CV60 cell lines were kindly provided by Dr. Akiyama (Kagoshima University, Japan). HEK293/pcDNA3.1, ABCG2-482-R5, ABCG2-482-G2, and ABCG2-482-T7 cells were established by selection with 2 mg/mL G418 after transfecting HEK293 with either (1) empty pcDNA3.1 vector or (2) pcDNA3.1 vector containing full length ABCG2 coding either (2a) wild-type arginine (R) or mutant (2b) glycine (G) or (2c) threonine (T) at amino acid position 482, respectively. The wild-type ABCG2-overexpressing drug-resistant cell line MCF-7/Flv1000 was cultured in the medium with 1 μM of flavopiridol. […] Another G482 mutant ABCG2-overexpressing drug resistant cell line, S1-M1-80, was maintained in the medium with 80 μM of mitoxantrone. […] All the cell lines were grown as adherent monolayers in flasks with DMEM (Dulbecco's modified Eagle's medium) culture medium (Hyclone Co.) containing 10% bovine serum at 37° C. in a humidified atmosphere of 5% CO2.
# (§2) Cells in 96-well plates were preincubated with or without the reversal agents for 1 h and then different concentrations of chemotherapeutic drugs were added into designated wells. After 68 h of incubation, MTT solution (4 mg/mL) was added to each well, and the plate was further incubated for 4 h, allowing viable cells to change the yellow-colored MTT into dark-blue formazan crystals. Subsequently the medium was discarded, and […] of DMSO was added into each well to dissolve the formazan crystals. The absorbance was determined at 570 nm by an OPSYS MR Microplate Reader from DYNEX Technologies, Inc.
# [2] = system: HEK 293-pcDNA-3.1; assay: MTT cytotoxicity assay (Example 4); type: cell-based
# Method: (§3) The MRP7 cDNA was generously provided by Dr. Gary Kruh (University of Illinois, Chicago, Ill.) and inserted into the pcDNA3.1 expression vector. […] Individual colonies were selected in medium containing G418 (1 mg/ml) and cultured for further analysis.
# (§4) MTT colorimetric assay was performed to analyze the drug sensitivity as previously described (Shi et al. (2007) Cancer Res. 67:11012-20). HEK293-pcDNA3.1 and HEK/MRP7 cells were seeded into 96-well plates in triplicate at 6000 cells/well.
# (§5) After drug incubation of 68 h, 20 μl MTT solution (4 mg/ml) was added into each well. […] The Bliss method was used to calculate the IC50 values according to survival curves.
# [3] = system: KB-3-1; assay: MTT cytotoxicity/reversal assay (Example 1); type: cell-based, human; details: read-out: IC50 of cisplatin, alone
# Method: (§6) The KB-C2 and KB-3-1 were kindly provided by Dr. Akiyama (Kagoshima University, Japan). HEK293-pcDNA3.1 and wild-type HEK/ABCG2 transfected cells were established by selection with G418 after transfecting HEK293 with either (1) empty pcDNA3.1 vector or (2) pcDNA3.1 vector containing full length of ABCG2 coding arginine (R) at amino acid position 482, and were then cultured in a medium with 2 mg/ml of G418 (ABCG2-482-R2 cells). Similarly, the HEK/MRP1 (ABCC1) and HEK/ABCB1 cells were generated by transfecting the HEK293 cells with either the MRP1 expression vector or the ABCB1 expression vector. All of the cell lines were grown in Dulbecco's modified Eagle's medium (DMEM) supplemented with 10% bovine serum, 100 units/ml penicillin, and […] streptomycin in a humidified incubator containing 5% CO2 at 37° C.
# (§7) The MTT assay was used to assess cytotoxicity. The cultured cells were harvested with trypsin and resuspended in a final concentration of 4×10^3 cells/well for KB-3-1; 7.5×10^3 cells/well for KB-C2; and 8×10^3 for all of the other cell lines used in this study. Cells were seeded evenly in 96-well multiplates. […] After 68 h of incubation, 20 μl of the MTT solution (4 mg/ml) was added to each well, and the plate was further incubated for 4 h at 37° C., allowing viable cells to convert the yellow-colored MTT into dark-blue formazan crystals. Subsequently, the medium was discarded, and 100 μl of DMSO was added into each well to dissolve the formazan crystals, generating purple color. The absorbance was determined at 570 nm by an OPSYS Microplate Reader from DYNEX Technologies, Inc. (Chantilly, Va.). […] The degree of the reversal of multidrug resistance (MDR) was calculated by dividing the IC50 of an anticancer drug, e.g., an antineoplastic or chemotherapeutic drug (agent, compound), in a cell type in the absence of a reversal agent by the IC50 of the anticancer drug in the same cell type in the presence of the reversal agent. The IC50 values were calculated from survival curves using the Bliss method.
# [4] = system: KB-3-1; assay: MTT cytotoxicity/reversal assay (Example 2); type: cell-based, human; details: read-out: IC50 of cisplatin, alone
# Method: as §1, §2
# [5] = system: KB-C2; assay: MTT cytotoxicity/reversal assay (Example 2); type: cell-based, human; details: read-out: IC50 of cisplatin, alone
# Method: as §1, §2
# [6] = system: KB-V1; assay: MTT cytotoxicity/reversal assay (Example 2); type: cell-based, human; details: read-out: IC50 of cisplatin, alone
# Method: as §1, §2
# [7] = system: HEK293/pcDNA3.1; assay: MTT cytotoxicity/reversal assay (Example 1); type: cell-based; details: read-out: IC50 of cisplatin; HEK293/pcDNA3.1; alone
# Method: as §6, §7
# [8] = system: MCF-7/Flv1000; assay: MTT cytotoxicity/reversal assay (Example 2); type: cell-based
# Method: as §1, §2
# [9] = system: HEK293/pcDNA3; assay: MTT cytotoxicity/reversal assay (Example 2); type: cell-based
# Method: as §1, §2
# [10] = system: MCF7/ADVP3000; assay: MTT cytotoxicity/reversal assay (Example 2); type: cell-based
# Method: as §1, §2
# [11] = system: MCF-7; assay: MTT cytotoxicity/reversal assay (Example 2); type: cell-based
# Method: as §1, §2
# [12] = system: S1-M1-80; assay: MTT cytotoxicity/reversal assay (Example 2); type: cell-based
# Method: as §1, §2
# [13] = system: S1; assay: MTT cytotoxicity/reversal assay (Example 2); type: cell-based
# Method: as §1, §2
# [14] = system: HEK/MRP7; assay: MTT cytotoxicity assay (Example 4); type: cell-based; details: alone;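 on fold-resistance, docetaxel: drug IC50 in HEK/MRP7 divided by IC50 in parental HEK293-pcDNA3.1 cells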
# Method: as §3, §4, §5
# [15] = MTT cytotoxicity assay (Example 4); type: cell-based; details: human; HEK/MRP7; alone; read-out: IC50 of docetaxel;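 on fold-resistance, docetaxel: drug IC50 in HEK/MRP7 divided by IC50 in parental HEK293-pcDNA3.1 cells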
# Method: as §3, §4, §5
# [16] = system: HEK/ABCG2-R5; assay: MTT cytotoxicity/reversal assay (Example 2)
# Method: as §1, §2
# [17] = system: HEK/ABCG2-T7; assay: MTT cytotoxicity/reversal assay (Example 2)
# Method: as §1, §2
# [18] = system: HEK/ABCG2-G2; assay: MTT cytotoxicity/reversal assay (Example 2)
# Method: as §1, §2
# [19] = read-out: IC50 of cisplatin, alone
# [20] = Homo sapiens, alone, read-out: IC50 of flavopiridol
smiles,measurement,setting,value
"N.N.[Cl][Pt][Cl] [Cisplatin, cisplatin]",IC50,[1]; read-out: IC50 of cisplatin,53.5 ± 5.8 µM
same,IC50,"[2]; read-out: IC50 of cisplatin, HEK 293-pcDNA-3.1, alone",1.57 ± 0.0849 µM
same,IC50,[3],1.9 ± 0.0709 µM
same,IC50,[4],1.75 ± 0.161 µM
same,IC50,[5],1.73 ± 0.083 µM
same,IC50,[6],1.76 ± 0.178 µM
same,IC50,[7],890 ± 33.9 µM
same,IC50,"[8]; read-out: IC50 of cisplatin, MCF-7/Flv1000, alone",35.1 ± 1.86 µM
same,IC50,[9]; [19],1.63 ± 0.17 µM
same,IC50,[10]; [19],31.1 ± 3.2 µM
same,IC50,[11]; [19],34.4 ± 1.76 µM
same,IC50,[12]; [19],18 ± 2.59 µM
same,IC50,[13]; [19],14.7 ± 2.23 µM
"CC(=O)O[C@@]12CO[C@@H]1C[C@H](O)[C@@]1(C)C(=O)[C@H](O)C3=C(C)[C@@H](OC(=O)[C@H](O)[C@@H](NC(=O)OC(C)(C)C)c4ccccc4)C[C@@](O)([C@@H](OC(=O)c4ccccc4)[C@H]21)C3(C)C [Docetaxel, docetaxel]","fold-resistance, docetaxel",[14],(11.31)
same,"fold-resistance, docetaxel","[2]; HEK 293-pcDNA-3.1, alone",(1.0)
same,IC50,[2]; read-out: IC50 of docetaxel,0.00573 ± 0.00065 µM
same,IC50 at 68 h,[15],0.0648 ± 0.00519 µM
"CN1CC[C@H](c2c(O)cc(O)c3c(=O)cc(-c4ccccc4Cl)oc23)[C@H](O)C1 [Flavopiridol, flavopiridol]","fold-resistance, flavopiridol",[1],(64.9)
same,IC50,[1]; read-out: IC50 of flavopiridol,6.2 ± 0.463 µM
same,"fold-resistance, flavopiridol",[16],(1.7)
same,"fold-resistance, flavopiridol",[17],(4.6)
same,"fold-resistance, flavopiridol",[18],(2.4)
same,"fold-resistance, flavopiridol","[8]; MCF-7/Flv1000, alone",(19.9)
same,IC50,"[8]; MCF-7 FLV1000, read-out: IC50 of flavopiridol",6.86 ± 0.479 µM
same,IC50,[9]; [20],0.164 ± 0.0171 µM
same,"fold-resistance, flavopiridol",[9]; alone,(1.0)^c
same,IC50,[10]; [20],3.9 ± 0.414 µM
same,"fold-resistance, flavopiridol",[10]; alone,(11.3)
same,IC50,"[11]; Homo sapiens, MCF7, alone, read-out: IC50 of flavopiridol",0.3443 ± 0.0021 µM
same,"fold-resistance, flavopiridol",[11]; alone,(1.0)^c
same,IC50,[12]; [20],0.699 ± 0.047 µM
same,"fold-resistance, flavopiridol",[12]; alone,(7.3)
same,"fold-resistance, flavopiridol",[13]; alone,(1.0)^c
same,IC50,"[13]; alone, read-out: IC50 of flavopiridol",0.0961 ± 0.0096 µM
